Source: patent publication US9980943B2, “Methods of treating muscular dystrophy” (BOARD OF REGENTS OF THE NEVADA SYSTEM OF HIGHER EDUCATION, …, priority 2013, dated 2018)
Read-outs that look alike come from different tables or passages of the source.

What was measured:
Type in all cases: cell-based, mouse
[1] = system: α7 integrin (LacZ reporter in α7βgal+/− myoblasts); experiment: Myoblast α7+/LacZ integrin FDG assay (Burkin assay in myoblasts, 96-well); details: α7+/LacZ myoblasts, 96-well; for fold induction at 0.5 µM / fold induction at 1 µM / fold induction at 5 µM / fold induction at 10 µM / fold induction at 20 µM / fold induction at 40 µM: Mus musculus, Myoblast, 48 h
[2] = system: α7 integrin (LacZ reporter in α7+/LacZ myotubes); experiment: Myotube α7 integrin FDG assay (Burkin assay in myotubes, 96-well); details: myotubes; for fold induction at 0.5 µM / fold induction at 1 µM / fold induction at 5 µM / fold induction at 10 µM / fold induction at 20 µM / fold induction at 40 µM: Mus musculus, Myotube
[3] = system: β-galactosidase in CMV-LacZ C2C12 myotubes; experiment: CMV-LacZ secondary screen in C2C12 myotubes (β-Gal stabilizing assay); details: for CMV-LACZ in Myotubes (β-galactosidase activity relative to DMSO): CMV-LacZ C2C12 myotubes, 96-well format
Procedure, shortened: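 β-Gal level was the read-out, measured in a clonal C2C12 line expressing LacZ from a CMV promoter. Dose-response curves used six concentrations, 0.5 μM up to 40 μM, with duplicate points.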

[4] = 5 uM, C2C12 CMV-LacZ myotubes, fold relative to DMSO
[5] = 10 uM, C2C12 CMV-LacZ myotubes, fold relative to DMSO
[6] = 20 uM, C2C12 CMV-LacZ myotubes, fold relative to DMSO
[7] = 40 uM, C2C12 CMV-LacZ myotubes, fold relative to DMSO

Row | SMILES | Burkin Assay in Myoblasts, signal relative to DMSO ([1]; 0.5 uM) | Burkin Assay in Myoblasts, signal relative to DMSO ([1]; 1 uM) | Burkin Assay in Myoblasts, signal relative to DMSO ([1]; 5 uM) | Burkin Assay in Myoblasts, signal relative to DMSO ([1]; 10 uM) | Burkin Assay in Myoblasts, signal relative to DMSO ([1]; 20 uM) | Burkin Assay in Myoblasts, signal relative to DMSO ([1]; 40 uM) | Burkin Assay in Myotubes, α7 integrin LacZ reporter signal relative to DMSO ([2]; 0.5 uM) | Burkin Assay in Myotubes, α7 integrin LacZ reporter signal relative to DMSO ([2]; 1 uM) | Burkin Assay in Myotubes, α7 integrin LacZ reporter signal relative to DMSO ([2]; 5 uM) | Burkin Assay in Myotubes, α7 integrin LacZ reporter signal relative to DMSO ([2]; 10 uM) | Burkin Assay in Myotubes, α7 integrin LacZ reporter signal relative to DMSO ([2]; 20 uM) | Burkin Assay in Myotubes, α7 integrin LacZ reporter signal relative to DMSO ([2]; 40 uM) | CMV-LACZ in Myotubes, signal relative to DMSO [3, 4] | CMV-LACZ in Myotubes, signal relative to DMSO [3, 5] | CMV-LACZ in Myotubes, signal relative to DMSO [3, 6] | CMV-LACZ in Myotubes, signal relative to DMSO [3, 7] | other results
1 | Nc1nccc(-c2ccc(-n3cnc4ccccc43)cc2)n1 [MLS000763405-01] |  |  |  |  |  |  |  |  |  |  |  |  |  |  |  |  | fold induction at 0.5 µM ([1]; 0.5 uM, read-out: Burkin Assay in Myoblasts, signal relative to DMSO): 0.961; fold induction at 1 µM ([1]; 1 uM, read-out: Burkin Assay in Myoblasts, signal relative to DMSO): 1.03; fold induction at 5 µM ([1]; 5 uM, read-out: Burkin Assay in Myoblasts, signal relative to DMSO): 1.46; fold induction at 10 µM ([1]; 10 uM, read-out: Burkin Assay in Myoblasts, signal relative to DMSO): 1.53; fold induction at 20 µM ([1]; 20 uM, read-out: Burkin Assay in Myoblasts, signal relative to DMSO): 1.47; fold induction at 40 µM ([1]; 40 uM, read-out: Burkin Assay in Myoblasts, signal relative to DMSO): 1.08; fold induction at 0.5 µM ([2]; 0.5 uM, read-out: Burkin Assay in Myotubes, α7 integrin LacZ reporter signal relative to DMSO): 1.03; fold induction at 1 µM ([2]; 1 uM, read-out: Burkin Assay in Myotubes, α7 integrin LacZ reporter signal relative to DMSO): 1.14; fold induction at 5 µM ([2]; 5 uM, read-out: Burkin Assay in Myotubes, α7 integrin LacZ reporter signal relative to DMSO): 1.21; fold induction at 10 µM ([2]; 10 uM, read-out: Burkin Assay in Myotubes, α7 integrin LacZ reporter signal relative to DMSO): 1.11; fold induction at 20 µM ([2]; 20 uM, read-out: Burkin Assay in Myotubes, α7 integrin LacZ reporter signal relative to DMSO): 1.45; fold induction at 40 µM ([2]; 40 uM, read-out: Burkin Assay in Myotubes, α7 integrin LacZ reporter signal relative to DMSO): 1.38; fold induction at 5 µM ([3]; Mus musculus, C2C12, read-out: CMV-LACZ in Myotubes, signal relative to DMSO, 5 uM, C2C12 CMV-LacZ myotubes, fold relative to DMSO): 1.05; fold induction at 10 µM ([3]; Mus musculus, C2C12, read-out: CMV-LACZ in Myotubes, signal relative to DMSO, 10 uM, C2C12 CMV-LacZ myotubes, fold relative to DMSO): 0.876; fold induction at 20 µM ([3]; Mus musculus, C2C12, read-out: CMV-LACZ in Myotubes, signal relative to DMSO, 20 uM, C2C12 CMV-LacZ myotubes, fold relative to DMSO): 0.824; fold induction at 40 µM ([3]; Mus musculus, C2C12, read-out: CMV-LACZ in Myotubes, signal relative to DMSO, 40 uM, C2C12 CMV-LacZ myotubes, fold relative to DMSO): 0.802
2 | CC(=O)c1cccc(NC(=O)C(=O)Nc2cccc3ccccc23)c1 [MLS000765108-01] |  |  |  |  |  |  |  |  |  |  |  |  |  |  |  |  | fold induction at 0.5 µM ([1]; 0.5 uM, read-out: Burkin Assay in Myoblasts, value relative to DMSO): 1.17; fold induction at 1 µM ([1]; 1 uM, read-out: Burkin Assay in Myoblasts, value relative to DMSO): 1.12; fold induction at 5 µM ([1]; 5 uM, read-out: Burkin Assay in Myoblasts, value relative to DMSO): 1.2; fold induction at 10 µM ([1]; 10 uM, read-out: Burkin Assay in Myoblasts, value relative to DMSO): 1.11; fold induction at 20 µM ([1]; 20 uM, read-out: Burkin Assay in Myoblasts, value relative to DMSO): 1.04; fold induction at 40 µM ([1]; 40 uM, read-out: Burkin Assay in Myoblasts, value relative to DMSO): 1.03; fold induction at 0.5 µM ([2]; 0.5 uM, read-out: Burkin Assay in Myotubes (signal relative to DMSO)): 0.872; fold induction at 1 µM ([2]; 1 uM, read-out: Burkin Assay in Myotubes (signal relative to DMSO)): 1.02; fold induction at 5 µM ([2]; 5 uM, read-out: Burkin Assay in Myotubes (signal relative to DMSO)): 1.06; fold induction at 10 µM ([2]; 10 uM, read-out: Burkin Assay in Myotubes (signal relative to DMSO)): 0.609; fold induction at 20 µM ([2]; 20 uM, read-out: Burkin Assay in Myotubes (signal relative to DMSO)): 0.922; fold induction at 40 µM ([2]; 40 uM, read-out: Burkin Assay in Myotubes (signal relative to DMSO)): 0.707; CMV-LACZ in Myotubes (β-galactosidase activity relative to DMSO) ([3]; 5 uM): 1.177; CMV-LACZ in Myotubes (β-galactosidase activity relative to DMSO) ([3]; 10 uM): 1.099; CMV-LACZ in Myotubes (β-galactosidase activity relative to DMSO) ([3]; 20 uM): 0.9927; CMV-LACZ in Myotubes (β-galactosidase activity relative to DMSO) ([3]; 40 uM): 0.97
3 | COC(=O)C1=NNC2(C)C(=O)N(c3ccc(C)cc3)C(=O)C12 (stereo not shown) [MLS000767227-01] | 1.025 | 0.8073 | 0.8577 | 0.9107 | 0.9133 | 0.9283 | 0.8593 | 0.8998 | 0.9645 | 0.844 | 0.7775 | 0.9434 | 1.024 | 1.1 | 0.9975 | 1.1815 | 
4 | CCCCCCC1CC(=O)NC(=O)N1 (stereo not shown) [MLS000768008-01] | 0.9886 | 0.9618 | 0.8976 | 0.8768 | 0.7837 | 0.8787 | 1.073 | 1.179 | 1.11 | 1.273 | 1.098 | 1.2867 | 0.8276 | 0.9644 | 1.028 | 0.9429 | 
